According to paper PMC2880850 (Journal of medicinal chemistry, 2010):
Entries after “also recorded” stand apart in the source; their conditions may differ.

Experiments:
[1] = system: MDA-MB-231 breast cancer cells; conditions: read-out: EC50 in killing MDA-MB-231 breast cancer cells; cited from earlier work
GST–Bcl-XL ΔTM protein = GST–Bcl-XL ΔTM protein (Homo sapiens, UniProt Q07817); conditions: read-out: IC50 binding to Bcl-XL in FPA assays; cited from earlier work
[2] = Chemical stability at different temperatures; assay type: physicochemical
Bcl-XL = Bcl-XL (Homo sapiens, UniProt Q07817); experiment: Isothermal Titration Calorimetry assay; assay type: binding; conditions: Kd ratio
[3] = system: B6 transgenic mice overexpressing human Bcl-2 in B-cells; experiment: Bcl-2 transgenic mice, spleen weight; assay type: in vivo, mouse; conditions: single i.p. injection at 42 mg/kg, 24 hours
[4] = system: Bax/Bak double knockout MEF cells (MEF/DKO); experiment: FITC-Annexin V/PI assay, Bax/Bak double knockout MEF; assay type: cell-based, mouse; conditions: for toxicity in MEF/DKO cells: 30 μM, FITC-Annexin V/PI
BP3 cell line = experiment: Apoptosis assay, Annexin V-FITC and propidium iodide, BP3; assay type: cell-based, human

Chain of Bcl-XL (Q07817 whole entry): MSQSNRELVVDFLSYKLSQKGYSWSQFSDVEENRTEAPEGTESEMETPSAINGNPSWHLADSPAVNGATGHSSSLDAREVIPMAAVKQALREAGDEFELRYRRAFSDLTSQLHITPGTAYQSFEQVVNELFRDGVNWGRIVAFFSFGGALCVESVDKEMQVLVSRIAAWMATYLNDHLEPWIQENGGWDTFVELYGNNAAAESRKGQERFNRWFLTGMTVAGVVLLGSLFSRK
Chain of GST–Bcl-XL ΔTM protein (Q07817 1-211 limits assumed, stated change not applied): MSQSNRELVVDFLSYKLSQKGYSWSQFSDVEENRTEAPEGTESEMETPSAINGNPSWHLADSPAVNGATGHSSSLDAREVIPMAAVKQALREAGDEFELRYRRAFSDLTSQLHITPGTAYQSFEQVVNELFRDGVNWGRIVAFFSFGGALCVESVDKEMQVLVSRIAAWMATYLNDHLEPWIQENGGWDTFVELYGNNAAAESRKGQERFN

Question: With Cc1cc2c(C(C)C)c(O)c(O)c(C=O)c2c(O)c1-c1c(C)cc2c(C(C)C)c(O)c(O)c(C=O)c2c1O (single isomer, unassigned) [(+) 1, Gossypol] as the compound, how does the EC50 [1] read?
Answer: ~10000 nM

Question: For Cc1cc2c(C(C)C)c(O)c(O)c(C=O)c2c(O)c1-c1c(C)cc2c(C(C)C)c(O)c(O)c(C=O)c2c1O (single isomer, unassigned) [(−) 1, Gossypol], which EC50 [1] is on record?
Answer: ~2000 nM

Question: And the IC50 (GST–Bcl-XL ΔTM protein)?
Answer: 480 nM

Question: Which results are given for Cc1cc2c(C(=O)NC[C@H](C)c3ccccc3)c(O)c(O)cc2c(O)c1-c1c(C)cc2c(C(=O)NC[C@H](C)c3ccccc3)c(O)c(O)cc2c1O (single isomer, unassigned) [Compound 11]?
Answer: chemical stability [2]: better chemical stability compared to other compounds (12–14); times more potent than other isomers 12–14 in ITC assay (Bcl-XL): 4–20 times; spleen weight reduction [3]: more than 30%; cytotoxicity against bax−/−bak−/− cells [4]: less cytotoxicity against bax^−/−bak^−/− cells compared to compound 4; also recorded: little cytotoxicity; toxicity in MEF/DKO cells [4]: slight toxicity; inhibition of tumor growth (M2182 tumor xenografts; 5 mg/kg i.p. every 2 days, nine injections, both flanks): near complete inhibition of tumor growth; tolerability of treatment (M2182 tumor xenografts; mouse, in vivo, ip): no apparent signs of toxicity

Question: For Cc1cc2c(C(=O)NC[C@H](C)c3ccccc3)c(O)c(O)cc2c(O)c1-c1c(C)cc2c(C(=O)NC[C@H](C)c3ccccc3)c(O)c(O)cc2c1O (single isomer, unassigned) [Compound 12], which spleen weight reduction [3] is on record?
Answer: weak in vivo activity

Question: With CN(C)CC[C@H](CSc1ccccc1)Nc1ccc(S(=O)(=O)NC(=O)c2ccc(N3CCN(Cc4ccccc4-c4ccc(Cl)cc4)CC3)cc2)cc1[N+](=O)[O-] [ABT-737] as the compound, how does the “apoptosis induction / cytotoxic activity against BP3 cell line” value (BP3 cell line) read?
Answer: no cytotoxic activity

Question: For Cc1cc2c(C(=O)NC[C@@H](C)c3ccccc3)c(O)c(O)cc2c(O)c1-c1c(C)cc2c(C(=O)NC[C@@H](C)c3ccccc3)c(O)c(O)cc2c1O [Compound 14, (R)-1,1′,6,6′,7,7′-hexahydroxy-3,3′-dimethyl-N^5-((S)-2-phenylpropyl)-N^5′-((S)-2-phenylpropyl)-2,2′-binaphthyl-5,5′-dicarboxamide], which “toxicity in MEF/DKO cells” value [4] is on record?
Answer: almost equally effective in killing both MEF/WT and MEF/DKO
